Reference: PMC3207826, “Phase I Evaluation of STA-1474, a Prodrug of the Novel HSP90 Inhibitor Ganetespib, in Dogs with Spontaneous Cancer” (PLoS ONE, 2011)
“Also recorded” adds a separate entry of the source.

Experiments:
[1] = Toxicity assessment (VCOG-CTCAE grades) in Phase I trial; assay type: in vivo, dogs
Experimental: This study was a Phase I dose escalating, open label assessment of the safety and pharmacokinetics of STA-1474 in client owned dogs with spontaneous malignancies. Dogs were administered STA-1474 on one of three dosing regimens and were evaluated weekly or twice per week dependent on the regimen used. Assessment of clinical toxicities and tumor response was performed at each visit. Dogs were evaluated for hematologic and biochemical toxicities every 7 days with routine bloodwork. The initial dose of STA-1474 was set at 7 mg/kg based on previous data from normal laboratory dogs (data not shown) and dose escalation was set at 2.5 mg/kg increments in cohorts of 3 until dose limiting toxicity (DLT) was identified. The DLT was considered to be any grade 3 or 4 hematologic or non-hematologic toxicity based on the established VCOG-CTAE criteria. […] Disease progression or signs and symptoms definitely related to disease were not considered adverse events (AEs).
Each patient underwent a baseline complete history, physical examination, and predose laboratory assessment that included a complete blood count (CBC), serum biochemistry profile, and urinalysis. Patients were assessed for adverse events on days 8, 15, 22, and 29, at which time a complete blood count with differential and clinical chemistry were performed. Urinalysis was performed at baseline and repeated only if indicated. Stipulations regarding minimal hematological requirements to continue dosing were included in the protocol: hematocrit >25%, neutrophils >[…], platelets >[…]. In addition, liver transaminases were required to be <4X upper limit of normal with a normal total bilirubin and serum creatinine to continue STA-1474 therapy.

HSP90 = test: Evaluation of tumor biopsies for HSP90 expression (Western blot); assay type: in vivo, dogs; conditions: tumor samples, 24 hrs following treatment, 5 mg/kg over 1 hour
Experimental: Frozen tumor samples were processed as described above, then resuspended in 100–150 uL of lysis buffer consisting of 20 mM Tris-HCl pH 8.0, 137 mM NaCl, 10% glycerol, 1% IGEPAL CA-630, 10 mM ethylenediaminetetraacetic acid (EDTA), 1 mg/mL aprotinin, 1 mg/mL leupeptin, 1 mg/mL pepstatin A, 1 mM phenylmethysulphonyl fluoride, 1 mM sodium orthovanadate, 10 mM sodium fluoride (all from Sigma, St. Louis, MO). Sample were rocked at 4°C for 1 hour, and then centrifuged for 15 minutes at 13,000 RCF. A Bradford protein assay was performed on the lysates using BioRad Reagent (Hercules, CA). 60–100 µg of protein were separated by SDS-page, and transferred to PVDF membranes. The membranes were incubated overnight with anti-HSP90 antibodies (Cell Signaling Technology, Danvers, MA), washed, then incubated with horseradish peroxidase linked secondary antibody. Membranes were washed again, then exposed to Super Signal West Dura Extended Duration Substrate (Pierce, Rockford, IL) Membranes were stripped, washed, and reprobed for β-Actin (Santa Cruz Biotechnology, Santa Cruz, CA) using the SNAP i.d. apparatus (Millipore, Billerica, MA) according to manufacture's instructions.

spontaneous tumors = test: Tumor response assessment (RECIST); assay type: in vivo, dogs
Experimental: Tumor assessments were completed prior to study entry, and days 8, 15, 22, and 29. For dogs that continued beyond the planned 4 doses of STA-1474, response assessments were performed every 3–6 weeks thereafter, or at the time of suspected tumor progression. Responses were assessed by the investigator according to pre-defined protocol criteria. The response in dogs with assessable disease was performed by clinical examination, radiography, ultrasonography, or CT scans. Many lesions were not amenable for quantitative radiographic imaging, but were followed either by serial clinical examination (superficial lesions; palpable lymph nodes) or by ultrasonography (abdominal lymph nodes). Thoracic lesions were assessed by thoracic radiography and nasal lesions by CT scan.
The response in dogs with measurable disease was judged by the investigator on the basis of RECIST criteria. A complete response (CR) was defined as disappearance of all disease on two measurements separated by a minimum period of 3 weeks. A partial response (PR) was defined as greater than 30% reduction in the sum of the longest diameter of the target lesions documented by two assessments separated by at least 3 weeks. An increase of >20% in the size of all measurable tumor areas as measured by the sum of longest diameters of the target lesions taken as reference the smallest sum since initiation of therapy, or the appearance of any new lesion(s) would qualify as progressive disease (PD). A mixed response (MR) was defined as PR in some target lesions with PD in other target lesions. Stable disease (SD) was defined by the absence of criteria for either a response or progression. Dogs who had no evidence of tumor progression and who had not experienced any unacceptable toxicity were eligible for extended treatment cycles. Dose escalation in an individual dog was permitted if the dog was tolerating therapy.

HSP70 = test: Evaluation of HSP70 expression in tumor biopsies and PBMCs (ELISA, Western blot); assay type: in vivo, dogs
OSA xenografts = conditions: cited from earlier work
[2] = system: canine MCT and OSA cell lines; conditions: cited from earlier work; for activity compared with 17-AAG: OSA and MCT cell lines
[3] = Ganetespib pharmacokinetics in plasma after STA-1474 infusion (LC-MS/MS); assay type: in vivo, dogs; conditions: for half-life / AUC(0-t) / Cmax / Tmax: iv, STA-9090 in plasma, mean, day 1
Experimental: Plasma samples were collected on day 1 and day 22 of therapy at the specified intervals: before and after dosing at 30, 60, 90, 120, 180, 300 (5 hr), 540 (9 hr), and 1440 (24 hr) minutes relative to the start of dosing. On day 8, day 15, and day 29, plasma was collected before dosing only. Approximately 1 ml of blood was drawn from an indwelling catheter, placed in a sodium heparin vacuum glass tube, and placed on ice until centrifugation. Blood samples were centrifuged at 3300 rpm for 10 minutes, within 30 minutes of collection. Plasma was transferred by pipette into two cryovials and stored at −80°C until analysis.
Plasma concentrations of ganetespib were determined using a qualified liquid chromatography tandem mass spectrometry (LC-MS/MS) method. Samples were analyzed on an HPLC system consisting of an Agilent HP1100 separation module (Santa Clara, CA) coupled to an AB SCIEX API400 MS/MS detector (Foster City, CA). Stable isotope-labeled ganetespib was used as an internal standard. Sample extraction was performed by a liquid-liquid extraction method with 25 µL plasma samples and 800 µL methyl tertiary butyl ether. The organic phase of samples was evaporated to dryness under nitrogen and reconstituted with water/acetonitrile solution for injection. Chromatographic separation was achieved on a reverse-phase analytical column (4 µm particle, 50×2.0 mm i.d.) with gradient elution of water/0.1% formic acid and acetonitrile/0.1% formic acid at a flow rate of 500 µL/min. The total run time was 4 min. Quantitation was achieved by MS/MS detection in positive ion mode by multiple reaction monitoring. The lower limit of quantitation (LLOQ) was 1.00 ng/mL, with a concentration range from 1.00 to 1000 ng/mL.
The pharmacokinetic parameters for ganetespib were determined from the plasma concentration data using the Noncompartmental Analysis module in WinNonlin, version 5.2 (Pharsight Corporation, St.Louis, MO). The predose samples that measured below the LLOQ (BQL) were treated as zero for the calculations. Maximum concentration (Cmax) and time of maximum concentration (Tmax) were directly determined from the observed concentration-time profiles. The area under the plasma concentration-time curve (AUC) was estimated by the linear trapezoidal rule. The apparent half-life (t1/2) was calculated as t1/2 = 0.693/λ where λ was the elimination rate constant estimated from the regression of the terminal slope of the concentration versus time curve.

MCT xenograft = conditions: murine MCT xenograft model; cited from earlier work
human cancer cell lines = system: human cancer cell lines; parameters: method as in earlier work; conditions: in vitro; 15 and unpublished data, Synta Pharmaceuticals Corp.; cited from earlier work
[4] = 1 hr/2x week, 5.0 mg/kg, 7 dogs
[5] = dog, plasma, 5 mg/kg, STA-1474 5 mg/kg, 1 h infusion, twice weekly
[6] = dog, plasma, 9.5 mg/kg, STA-1474 9.5 mg/kg, 1 h infusion, once weekly
[7] = dog, plasma, 9.5 mg/kg, STA-1474 9.5 mg/kg, 8 h infusion, once weekly

## CC(C)c1cc(-c2nnc(O)n2-c2ccc3c(ccn3C)c2)c(O)cc1OP(=O)(O)O [STA-1474]
[1]; [4]
  Anorexia grade 1 (count): 3
  Anorexia grade 2 (count): 5
  Diarrhea grade 1 (count): 5
  Diarrhea grade 2 (count): 1
  Diarrhea grade 3 (count): 1
  Lethargy grade 1 (count): 4
  Lethargy grade 2 (count): 2
[1]; 1 hr/week, 7.0 mg/kg, 4 dogs
  Anorexia grade 2 (count): 2
  Diarrhea grade 1 (count): 2
  Diarrhea grade 2 (count): 3
  Lethargy grade 1 (count): 2
  Vomiting grade 1 (count): 3
[1]; 1 hr/week, 9.5 mg/kg, 5 dogs
  Diarrhea grade 1 (count): 1
  Diarrhea grade 3 (count): 1
  Lethargy grade 2 (count): 1
  Lethargy grade 3 (count): 1
  Vomiting grade 2 (count): 2
[1]; 1 hr/week, 10.25 mg/kg, 3 dogs
  Anorexia grade 2 (count): 3
  Diarrhea grade 2 (count): 3
  Lethargy grade 2 (count): 3
  Vomiting grade 2 (count): 1
[1]; 8 hr/week, 9.5 mg/kg, 6 dogs
  Anorexia grade 1 (count): 5
  Anorexia grade 2 (count): 4
  Diarrhea grade 1 (count): 4
  Diarrhea grade 2 (count): 4
  Lethargy grade 1 (count): 2
  Vomiting grade 2 (count): 3
[1]; administered weekly over 1 or 8 hours, intravenous
  maximum tolerated weekly dose: 9.5 mg/kg
[1]; any doses or regimens
  hematologic or biochemical toxicities: No drug-related hematologic or biochemical toxicities; also recorded: no evidence of hematologic toxicity
HSP90
  HSP90 expression levels (Western blot): did not appear to change substantially
Spontaneous tumors; 5 mg/kg over one hour twice per week, 7 dogs, both MCTs
  dogs with partial responses: 2
Spontaneous tumors; 1 hr once per week dosing regimen, n = 12, exception one dog with oral malignant melanoma after extravasation
  objective responses: no objective responses
Spontaneous tumors; 8 hour infusion group, 9.5 mg/kg once weekly, 2PR, 1 MR, 2 SD of 6
  biologic activity rate: 83%
Spontaneous tumors; all dogs, 6/25
  response rate (measurable objective responses): 24%
Spontaneous tumors; all dogs, 9/25
  overall biological activity (objective responses plus stable disease >10 weeks): 36%
Spontaneous tumors; metastatic MCT, 8 hour infusion 9.5 mg/kg
  duration of mixed response: 16 weeks
Spontaneous tumors; metastatic OSA, 8 hour infusion 9.5 mg/kg
  duration of partial response: 20 weeks
Spontaneous tumors; metastatic thyroid carcinoma, 8 hour infusion 9.5 mg/kg
  duration of partial response: 36 weeks
Spontaneous tumors; metastatic thyroid carcinoma, switched from 1 hr to 8 hr infusion
  duration of stable disease: 40 weeks
Spontaneous tumors; oral malignant melanoma with extravasation event, on 8 hour infusion protocol
  duration of continued partial response: 12 weeks
Spontaneous tumors; two dogs, both metastatic OSA, 8 hour infusion 9.5 mg/kg
  duration of stable disease: 12 weeks
HSP70; PBMCs, 24 hours after 9.5 mg/kg over 8 hours
  HSP70 expression (Western blot): small increases in HSP70 expression
HSP70; tumor specimens and PBMCs, following drug administration
  time to upregulation of HSP70 protein expression: ≤ 7 h
OSA xenografts
  tumor effect: induced tumor regression
[2]
  activity compared with 17-AAG: superior activity

## CC(C)c1cc(-c2n[nH]c(=O)n2-c2ccc3c(ccn3C)c2)c(O)cc1O [ganetespib]
[3]; dog with oral melanoma, extravasation (mostly subcutaneous) of STA-1474, first dosing cohort
  sustained blood levels: 200 to 600 ng/mL
[3]; dog with oral melanoma, extravasation of STA-1474, levels between 200–600 ng/ml
  duration of sustained blood levels: 8 to 10 h
[3]; dog, STA-1474 5 mg/kg, 1 h infusion, twice weekly
  half-life: 6.1 h
[3]; dog, STA-1474 9.5 mg/kg, 1 h infusion, once weekly
  half-life: 5.6 h
[3]; dog, plasma, intravenous, range over the three dosing regimens of STA-1474
  AUC: 5010 to 5700 ng·h/mL
[3]; [5]
  AUC(0-t): 5010 ng·h/mL
  Cmax: 3420 ng/mL
  Tmax: 1.1 h
[3]; [6]
  AUC(0-t): 5700 ng·h/mL
  Cmax: 3980 ng/mL
  Tmax: 0.7 h
[3]; [7]
  AUC(0-t): 5600 ng·h/mL
  Cmax: 802 ng/mL
  Tmax: 5.7 h
MCT xenograft
  tumor growth: inhibited tumor growth
[2]
  activity compared with 17-AAG: superior activity
[2]; canine MCT and OSA cell lines
  concentrations for biologic effects, lower than those for 17-AAG: at least 1 log
Human cancer cell lines
  concentrations killing cancer cell lines: low nanomolar concentrations
